Here are results for 14 sequences from patent US7378234B2, “Method for isolating hepatitis C virus peptides” (Intercell AG, priority 2002, dated 2008).

Entries after “also recorded” stand apart in the source; their conditions may differ.

The test system of assay [1] is HLA-DRB1*0401 transgenic mice. Kind of assay: Immunization of HLA-DRB1*0401 transgenic mice (peptide + CpI), splenocyte IFN-gamma ELISpot. To be noted: for immunogenicity in HLA-DRB1*0401 transgenic mice (in words): Example II, IFN-gamma ELISpot of splenocytes; for Immunogenicity, peptide-specific IFN-gamma-producing cells, DRB1*0401: HLA-DRB1*0401 transgenic mice, splenocytes. In kind it is in vivo, mouse. The method, then: (§1) Immunogenicity of synthetic HCV-derived peptides was tested in HLA-DRB1*0401- and HLA-A*0201-transgenic mice as follows: Groups of 3 mice (female, 8 weeks of age) were injected subcutaneously into the flank (in total 100 μg of peptide +30 μg oligodinucleotide CpI (Purimex, Göttingen, Germany) per mouse).
(§2) Mouse splenocyte ELIspot assay for single cell IFN-gamma release ELISpot plates (MAHA S4510, Millipore, Germany) were rinsed with PBS (200 μl/well), coated with anti-mouse IFN-gamma mAb (clone R46A2; 100 μl/well of 5 μg/ml in 0.1 M NaHCO3, pH 9.2-9.5) and incubated overnight at 4° C. Plates were washed four times with PBS/0.1% Tween 20 and incubated with PBS/1% BSA (200 μl/well) at room temperature for 2 h to block nonspecific binding. Spleen cells from vaccinated mice were prepared and plated at 1×10^6-3×10^5 cells/well and incubated overnight at 37° C./5% CO2 either in the presence of the immunizing antigen (peptide), control peptides or with medium alone. Subsequently, plates were washed four times and incubated with biotinylated anti-mouse IFN-gamma mAb (clone AN18.17.24, 100 μl/well of 2 μg/ml in PBS/1% BSA) for 2 h at 37° C. After washing, streptavidin-peroxidase (Roche Diagnostics, Vienna, Austria) was added ( 1/5000 in PBS, 100 μl/well) and plates were incubated at room temperature for 2 additional hours. Subsequently, substrate was added to the washed plates (100 μl/well of a mixture of 10 ml 100 mM Tris pH 7.5 supplemented with 200 μl of 40 mg/ml DAB stock containing 50 μl of 80 mg/ml NiCl2 stock and 5 μl of 30% H2O2). The reaction was stopped after 20-30 minutes by washing the plates with tap water. Dried plates were evaluated with an ELISpot reader (BIOREADER 2000, BioSys, Karben, Germany).
(§3) As summarized in Table 3, some peptides were either immunogenic (+, less than 100 peptide-specific cells among a million splenocytes) or even strongly immunogenic (++, more than 100 peptide-specific cells among a million splenocytes) in DR4- and/or A*0201-transgenic mice.

Assay [2] relates to HLA-B*0702 transgenic mice. Briefly: Vaccination of HLA-B*0702 transgenic mice (peptide + IC31), IFN-gamma ELISpot with spleen cells and CD8+ fraction. The format is in vivo, mouse. Conditions: for Immunogenicity, peptide-specific IFN-gamma-producing cells, B*0702: HLA-B*0702 transgenic mice, splenocytes; for specific INF-γ producing T cells / HLA-B*0702 epitope in HLA-B*0702 transgenic mice (in words): peptide + IC31, whole spleen cells and CD8+ fraction. On the procedure: as §2
Groups of 5 mice (HLA-A*0201-, HLA-DRB1*0401- and HLA-B*0702 transgenic mice, male, 8-14 weeks of age) were injected subcutaneous into the hind footpads with 100 μg of peptide +IC31 per mouse (50 μg per footpad). (PCT/EP01/12041, WO 02/32451 A1 and PCT/EP01/06433, WO 01/93905 A1; IC31 is a combination of the immunizer disclosed in WO 01/93905 and WO 02/32451).
6 days after vaccination single cell suspension of pooled spleens were prepared and additionally pure fractions of CD8+ in the case of A2 and B7 tg mice (CD8+ fraction for B7 mice containing 97% of CD8 and 1.5% of CD4 cells and for A2 tg mice 83% of CD8 and 8% of CD4 cells) and CD4+ for DR4tg mice (CD4+ fraction for DR4tg mice containing 98% of CD4 cells and 0.2% of CD8 cells) were separated from the spleen cell suspension using MACS separating kit (Miltenyi, Germany).

In assay [3] the test system is HLA-A*0201 transgenic mice. Kind of assay: Immunization of HLA-A*0201 transgenic mice (peptide + CpI), splenocyte IFN-gamma ELISpot. In kind it is in vivo, mouse. To be noted: for immunogenicity in HLA-A*0201 transgenic mice (in words): Example II, IFN-gamma ELISpot of splenocytes; for Immunogenicity, peptide-specific IFN-gamma-producing cells, A*0201: HLA-A*0201 transgenic mice, splenocytes. The method, then:
as §1, §2, §3

In another assay the target is HLA-DRB1*0101 (Homo sapiens, UniProt P01903+P01911, A100R/D57E/F55L/F60I/F76Y/I96L/L162R/M171V/P40L/Q125E/R42F/V115G/Y59C). Kind of assay: Epitope capture / peptide binding, SDS-stability assay, soluble DRB1*0101. To be noted: soluble HLA class II, individual peptide confirmed (Table 2).
The next assay deals with HLA-DRB1*0404 (Homo sapiens, UniProt P01903+P01911, A100R/A169T/F76Y/I96L/K127E/L162R/M171V/N62H/P40V/Q125Y/R42H/S133A/S149N/S66Y/V209L/W38E). Briefly: Epitope capture / peptide binding, SDS-stability assay, soluble DRB1*0404. To be noted: soluble HLA class II, individual peptide confirmed (Table 2).

On to “GAAVGSIGLGKVLVDILAGYGAGISGALVAFKIMSGE [Peptide 1555]”, for which, in assay [1], the “immunogenicity in HLA-DRB1*0401 transgenic mice (in words)” value is recorded as “immunogenicity” and the “Immunogenicity, peptide-specific IFN-gamma-producing cells, DRB1*0401” value is recorded as “+ (immunogenic (+, less than 100 peptide-specific cells among a million splenocytes))”. For the same sequence, in assay [2], the “Immunogenicity, peptide-specific IFN-gamma-producing cells, B*0702” value (shortened to “Immunogenicity … B*0702”) was “+ (immunogenic (+, less than 100 peptide-specific cells among a million splenocytes))” and the “specific INF-γ producing T cells / HLA-B*0702 epitope in HLA-B*0702 transgenic mice (in words)” value is listed as “HLA-B*0702 epitopes with T-cell activating capacity”. Also, in assay [3], the “immunogenicity in HLA-A*0201 transgenic mice (in words)” value is “immunogenicity” and the “Immunogenicity, peptide-specific IFN-gamma-producing cells, A*0201” value is “+ (immunogenic (+, less than 100 peptide-specific cells among a million splenocytes))”.

With “VDYPYRLWHYPCTVNYTIFKIRMYVGGVEHRL [Peptide 1651]”, in assay [1], the “immunogenicity in HLA-DRB1*0401 transgenic mice (in words)” value is “immunogenicity” and the “Immunogenicity, peptide-specific IFN-gamma-producing cells, DRB1*0401” value is recorded as “++ (strongly immunogenic (++, more than 100 peptide-specific cells among a million splenocytes))”. In assay [2], the “Immunogenicity … B*0702” value is reported as “+ (immunogenic (+, less than 100 peptide-specific cells among a million splenocytes))” and the “specific INF-γ producing T cells / HLA-B*0702 epitope in HLA-B*0702 transgenic mice (in words)” value was “HLA-B*0702 epitopes with T-cell activating capacity”. In assay [3], the “immunogenicity in HLA-A*0201 transgenic mice (in words)” value is “immunogenicity” and the “Immunogenicity, peptide-specific IFN-gamma-producing cells, A*0201” value is listed as “++ (strongly immunogenic (++, more than 100 peptide-specific cells among a million splenocytes))”.

For the sequence “ARALAHGVRVLEDGVNYATGNLPGCSFSIFLLALLSC [Peptide 1647]”, in assay [2], the “Immunogenicity … B*0702” value is “+ (immunogenic (+, less than 100 peptide-specific cells among a million splenocytes))” and the “specific INF-γ producing T cells / HLA-B*0702 epitope in HLA-B*0702 transgenic mice (in words)” value is “HLA-B*0702 epitopes with T-cell activating capacity”. In assay [3], the “immunogenicity in HLA-A*0201 transgenic mice (in words)” value was “immunogenicity” and the “Immunogenicity, peptide-specific IFN-gamma-producing cells, A*0201” value was “+ (immunogenic (+, less than 100 peptide-specific cells among a million splenocytes))”.

LPALSTGLIHLHQNIVDVQYLYG [Peptide 1656]: in assay [1], the “immunogenicity in HLA-DRB1*0401 transgenic mice (in words)” value is “immunogenicity” and the “Immunogenicity, peptide-specific IFN-gamma-producing cells, DRB1*0401” value was “+ (immunogenic (+, less than 100 peptide-specific cells among a million splenocytes))”.

With PEYDLELITSCSSNVSVA [Peptide 1627], in assay [1], the “immunogenicity in HLA-DRB1*0401 transgenic mice (in words)” value is “immunogenic; also recorded: immunogenicity” and the “Immunogenicity, peptide-specific IFN-gamma-producing cells, DRB1*0401” value is reported as “+ (immunogenic (+, less than 100 peptide-specific cells among a million splenocytes))”. Also, in assay [2], the “Immunogenicity … B*0702” value is recorded as “++ (strongly immunogenic (++, more than 100 peptide-specific cells among a million splenocytes))” and the “specific INF-γ producing T cells / HLA-B*0702 epitope in HLA-B*0702 transgenic mice (in words)” value is on record as “HLA-B*0702 epitopes with T-cell activating capacity”. Also, in assay [3], the “immunogenicity in HLA-A*0201 transgenic mice (in words)” value was “immunogenicity” and the “Immunogenicity, peptide-specific IFN-gamma-producing cells, A*0201” value was “+ (immunogenic (+, less than 100 peptide-specific cells among a million splenocytes))”.

As for LTPPHSAKSKYGYGAKEVR [Peptide 1616], in assay [1], the “immunogenicity in HLA-DRB1*0401 transgenic mice (in words)” value is recorded as “immunogenicity” and the “Immunogenicity, peptide-specific IFN-gamma-producing cells, DRB1*0401” value is recorded as “+ (immunogenic (+, less than 100 peptide-specific cells among a million splenocytes))”.

As to “YLHAPTGSGKSTKVPVAYAAQGYKVLVLNPSVAATLGFGAY [Peptide 1552]”, in assay [2], the “Immunogenicity … B*0702” value was “+ (immunogenic (+, less than 100 peptide-specific cells among a million splenocytes))” and the “specific INF-γ producing T cells / HLA-B*0702 epitope in HLA-B*0702 transgenic mice (in words)” value is reported as “HLA-B*0702 epitopes with T-cell activating capacity”. In addition, in assay [3], the “immunogenicity in HLA-A*0201 transgenic mice (in words)” value was “immunogenicity” and the “Immunogenicity, peptide-specific IFN-gamma-producing cells, A*0201” value was “+ (immunogenic (+, less than 100 peptide-specific cells among a million splenocytes))”.

For the sequence SGHRMAWDMMMNWSPT [Peptide 1631], in assay [1], the “immunogenicity in HLA-DRB1*0401 transgenic mice (in words)” value is “immunogenic” and the “Immunogenicity, peptide-specific IFN-gamma-producing cells, DRB1*0401” value was “+ (immunogenic (+, less than 100 peptide-specific cells among a million splenocytes))”. The “Binding to DRB1 *0101” value in the assay with HLA-DRB1*0101 was “nb (no binding)”. Also, in assay [3], the “immunogenicity in HLA-A*0201 transgenic mice (in words)” value was “immunogenicity” and the “Immunogenicity, peptide-specific IFN-gamma-producing cells, A*0201” value is recorded as “+ (immunogenic (+, less than 100 peptide-specific cells among a million splenocytes))”.

Take “GAAVGSICLGKVLVDILAGYGAGVAGALVAFKIMSGE [Peptide 1553]”: in assay [2], the “Immunogenicity … B*0702” value is “+ (immunogenic (+, less than 100 peptide-specific cells among a million splenocytes))” and the “specific INF-γ producing T cells / HLA-B*0702 epitope in HLA-B*0702 transgenic mice (in words)” value is reported as “HLA-B*0702 epitopes with T-cell activating capacity”. In assay [3], the “immunogenicity in HLA-A*0201 transgenic mice (in words)” value is recorded as “immunogenic” and the “Immunogenicity, peptide-specific IFN-gamma-producing cells, A*0201” value was “+ (immunogenic (+, less than 100 peptide-specific cells among a million splenocytes))”.

On to “VNLLPGILSPGALVVGVICAAILRRHVGPGEGAVQWMNRLIAFASRGNHVAPTHYV [Peptide 1587]”, for which, in assay [2], the “Immunogenicity … B*0702” value was “+ (immunogenic (+, less than 100 peptide-specific cells among a million splenocytes))” and the “specific INF-γ producing T cells / HLA-B*0702 epitope in HLA-B*0702 transgenic mice (in words)” value was “confirmed to contain human HLA-B*0702 epitopes; also recorded: HLA-B*0702 epitopes with T-cell activating capacity”. Further, in assay [3], the “immunogenicity in HLA-A*0201 transgenic mice (in words)” value is given as “immunogenic” and the “Immunogenicity, peptide-specific IFN-gamma-producing cells, A*0201” value was “+ (immunogenic (+, less than 100 peptide-specific cells among a million splenocytes))”.

As to LEDRDRSQLSPLLHSTTEW [Peptide 1625], in assay [1], the “immunogenicity in HLA-DRB1*0401 transgenic mice (in words)” value is “immunogenicity” and the “Immunogenicity, peptide-specific IFN-gamma-producing cells, DRB1*0401” value is on record as “+ (immunogenic (+, less than 100 peptide-specific cells among a million splenocytes))”.

As to “DPRHRSRNVGKVIDTLTCGFADLMGYIPVVGAPLGG [Peptide 1649]”, in assay [1], the “immunogenicity in HLA-DRB1*0401 transgenic mice (in words)” value was “immunogenicity” and the “Immunogenicity, peptide-specific IFN-gamma-producing cells, DRB1*0401” value is recorded as “+ (immunogenic (+, less than 100 peptide-specific cells among a million splenocytes))”.

For LLFLLLADARVCACLWM [Peptide 1630], in assay [1], the “immunogenicity in HLA-DRB1*0401 transgenic mice (in words)” value is given as “immunogenic; also recorded: immunogenicity” and the “Immunogenicity, peptide-specific IFN-gamma-producing cells, DRB1*0401” value is reported as “++ (strongly immunogenic (++, more than 100 peptide-specific cells among a million splenocytes))”. Besides, in the assay with HLA-DRB1*0101, the “Binding to DRB1 *0101” value is recorded as “* (weak binding)”. Further, in assay [3], the “immunogenicity in HLA-A*0201 transgenic mice (in words)” value is recorded as “immunogenic” and the “Immunogenicity, peptide-specific IFN-gamma-producing cells, A*0201” value is “++ (strongly immunogenic (++, more than 100 peptide-specific cells among a million splenocytes))”. For the same sequence, the “Binding to DRB1 *0404” value with HLA-DRB1*0404 is recorded as “nb (no binding)”.

In the case of “SGMFDSVVLCECYDAGAAWYELTPAETTVRLRAY [Peptide 1563]”, in assay [1], the “immunogenicity in HLA-DRB1*0401 transgenic mice (in words)” value is on record as “immunogenicity” and the “Immunogenicity, peptide-specific IFN-gamma-producing cells, DRB1*0401” value is “+ (immunogenic (+, less than 100 peptide-specific cells among a million splenocytes))”. Further, in assay [2], the “Immunogenicity … B*0702” value is “+ (immunogenic (+, less than 100 peptide-specific cells among a million splenocytes))” and the “specific INF-γ producing T cells / HLA-B*0702 epitope in HLA-B*0702 transgenic mice (in words)” value was “HLA-B*0702 epitopes with T-cell activating capacity”.
